In patent publication US6489297B1, “Vasoactive intestinal peptide analogs” (Dabur Research Foundation, priority 2000, dated 2002):
Where a SMILES comes first, the peptide text is derived from it. [ ]: non-standard residue; d: D form. dPhe(4-Cl) = N[C@H](Cc1ccc(Cl)cc1)C(=O)O; Dpg = CCCC(N)(CCC)C(=O)O; Aib = CC(C)(N)C(=O)O

Columns and labels:
Assay type in all cases: cell-based, human
Conditions in all cases: 72 hours
PA-1 (ovary) = assay: MTT cytotoxicity assay, PA-1 cells
Description: (§1) The cytotoxic activity of synthesized peptides was tested on […] human tumor cell lines namely PA-1 (ovary), SW620 (colon) HuTu80 (duodenum), L132 (lung), U87MG (glioblastoma), KB (oral), MIAPaCa2(pancreas), A549(non small cell lung) and HT-29(colon). The tumor cells were collected at exponential growth phase and resuspended in medium (1.5×10^6 cells/ml in RPMI 1640 containing 10% FBS). 150 μl of medium was added to the wells of a 96-well tissue culture plate (Nunc, Denmark) followed by 30 μl of cell suspension. The plate was left in incubator (37° C., 5% CO2) overnight. 20 μl of the peptide (100 pM to 1 uM concentration) was added to marked wells of the 96-well plate. Each concentration was plated in triplicates. 20 μl of medium alone was added to control wells while wells without cells served as blanks. A total volume of 200 μl was ensured in each well and plate was left in incubator (37° C., 5% CO2). After 72 hours of incubation an MTT assay was performed and percentage cytotoxicity was calculated with respect to control cells. Following Tables show the maximum cytotoxicity achieved on various cell lines.

KB (oral) = assay: MTT cytotoxicity assay, KB cells
Description: as §1

HT-29(colon) = assay: MTT cytotoxicity assay, HT-29 cells
Description: as §1

[1] = tested on: A549(non small cell lung); assay: MTT cytotoxicity assay, A549 cells
Description: as §1

L132 (lung) = assay: MTT cytotoxicity assay, L132 cells
Description: as §1

HuTu80 (duodenum) = assay: MTT cytotoxicity assay, HuTu80 cells
Description: as §1

SW620 (colon) = assay: MTT cytotoxicity assay, SW620 cells
Description: as §1

MIAPaCa2(pancreas) = assay: MTT cytotoxicity assay, MIAPaCa2 cells
Description: as §1

U87MG (glioblastoma) = assay: MTT cytotoxicity assay, U87MG cells
Description: as §1

## CC[C@H](C)[C@H](NC(=O)[C@H](CO)NC(=O)[C@H](CC(N)=O)NC(=O)[C@H](CC(C)C)NC(=O)[C@H](Cc1ccc(O)cc1)NC(=O)[C@H](CCCCN)NC(=O)[C@H](CCCCN)NC(=O)[C@@H](NC(=O)[C@H](C)NC(=O)[C@H](CC(C)C)NC(=O)[C@H](CCC(N)=O)NC(=O)[C@H](CCCCN)NC(=O)[C@H](CCCNC(=N)N)NC(=O)[C@H](CC(C)C)NC(=O)[C@H](CCCNC(=N)N)NC(=O)[C@@H](NC(=O)[C@H](Cc1ccc(O)cc1)NC(=O)[C@H](CC(N)=O)NC(=O)[C@H](CC(=O)O)NC(=O)[C@@H](NC(=O)[C@@H](Cc1ccc(Cl)cc1)NC(=O)[C@@H](NC(=O)C(C)(C)NC(=O)[C@H](CC(=O)O)NC(=O)[C@H](CO)NC(=O)[C@@H](N)Cc1c[nH]cn1)C(C)C)[C@@H](C)O)[C@@H](C)O)C(C)C)C(=O)N[C@@H](CC(C)C)C(=O)N[C@@H](CC(N)=O)C(N)=O [SEQ ID NO: 2] (H-HSD[Aib]V[dPhe(4-Cl)]TDNYTRLRKQLAVKKYLNSILN-NH2)
PA-1 (ovary); PA1, 100 pM
  Percentage cytotoxicity: 16 ± 3.3%
PA-1 (ovary); PA1, 1 nM
  Percentage cytotoxicity: 30.0 ± 6.7%
PA-1 (ovary); PA1, 10 nM
  Percentage cytotoxicity: 28.9 ± 5.5%
PA-1 (ovary); PA1, 100 nM
  Percentage cytotoxicity: 18.9 ± 4.2%
PA-1 (ovary); PA1, 1 μM
  Percentage cytotoxicity: 16.5 ± 3.4%
KB (oral); 100 pM
  Percentage cytotoxicity: 47 ± 8.5%
KB (oral); 1 nM
  Percentage cytotoxicity: 42 ± 8.0%
KB (oral); 10 nM
  Percentage cytotoxicity: 34 ± 6.0%
KB (oral); 100 nM
  Percentage cytotoxicity: 37 ± 5.0%
KB (oral); 1 μM
  Percentage cytotoxicity: 43 ± 0.5%
HT-29(colon); HT29, 100 pM
  Percentage cytotoxicity: 26 ± 5.5%
HT-29(colon); HT29, 1 nM
  Percentage cytotoxicity: 25 ± 4.5%
HT-29(colon); HT29, 10 nM
  Percentage cytotoxicity: 25 ± 4.5%
HT-29(colon); HT29, 100 nM
  Percentage cytotoxicity: 30 ± 5.8%
HT-29(colon); HT29, 1 μM
  Percentage cytotoxicity: 38 ± 5.5%
[1]; A549, 100 pM
  Percentage cytotoxicity: 16 ± 5.5%
[1]; A549, 1 nM
  Percentage cytotoxicity: 19 ± 4.5%
[1]; A549, 10 nM
  Percentage cytotoxicity: 21 ± 5.5%
[1]; A549, 100 nM
  Percentage cytotoxicity: 41 ± 6.0%
[1]; A549, 1 μM
  Percentage cytotoxicity: 45 ± 5.5%
L132 (lung); L132, 100 pM
  Percentage cytotoxicity: 18 ± 2.3%
L132 (lung); L132, 1 nM
  Percentage cytotoxicity: 28 ± 4.5%
L132 (lung); L132, 10 nM
  Percentage cytotoxicity: 30.9 ± 7.0%
L132 (lung); L132, 100 nM
  Percentage cytotoxicity: 18.9 ± 5.0%
L132 (lung); L132, 1 μM
  Percentage cytotoxicity: 15.9 ± 7.5%
HuTu80 (duodenum); HuTu80, 100 pM
  Percentage cytotoxicity: 10 ± 3.5%
HuTu80 (duodenum); HuTu80, 1 nM
  Percentage cytotoxicity: 20 ± 5.5%
HuTu80 (duodenum); HuTu80, 10 nM
  Percentage cytotoxicity: 18 ± 4.5%
HuTu80 (duodenum); HuTu80, 100 nM
  Percentage cytotoxicity: 24 ± 5.6%
HuTu80 (duodenum); HuTu80, 1 μM
  Percentage cytotoxicity: 39 ± 4.5%
SW620 (colon); SW620, 100 pM
  Percentage cytotoxicity: 16.9 ± 4.5%
SW620 (colon); SW620, 1 nM
  Percentage cytotoxicity: 28 ± 6.6%
SW620 (colon); SW620, 10 nM
  Percentage cytotoxicity: 30 ± 4.5%
SW620 (colon); SW620, 100 nM
  Percentage cytotoxicity: 23 ± 3.8%
SW620 (colon); SW620, 1 μM
  Percentage cytotoxicity: 18.5 ± 5.1%
MIAPaCa2(pancreas); MIAPaCa2, 100 pM
  Percentage cytotoxicity: 20 ± 6.5%
MIAPaCa2(pancreas); MIAPaCa2, 1 nM
  Percentage cytotoxicity: 31 ± 5.0%
MIAPaCa2(pancreas); MIAPaCa2, 10 nM
  Percentage cytotoxicity: 35 ± 3.5%
MIAPaCa2(pancreas); MIAPaCa2, 100 nM
  Percentage cytotoxicity: 32 ± 4.5%
MIAPaCa2(pancreas); MIAPaCa2, 1 μM
  Percentage cytotoxicity: 36 ± 0.5%
U87MG (glioblastoma); 100 pM
  Percentage cytotoxicity: 10.5 ± 4.5%
U87MG (glioblastoma); 1 nM
  Percentage cytotoxicity: 12 ± 7.6%
U87MG (glioblastoma); 10 nM
  Percentage cytotoxicity: 28.9 ± 5.6%
U87MG (glioblastoma); 100 nM
  Percentage cytotoxicity: 19.0 ± 7.0%
U87MG (glioblastoma); 1 μM
  Percentage cytotoxicity: 14 ± 4.5%

## CCCC(CCC)(NC(=O)[C@H](CCC(N)=O)NC(=O)[C@H](CCCCN)NC(=O)[C@H](CCCNC(=N)N)NC(=O)[C@H](CC(C)C)NC(=O)[C@H](CCCNC(=N)N)NC(=O)[C@@H](NC(=O)[C@H](Cc1ccc(O)cc1)NC(=O)[C@H](CC(N)=O)NC(=O)[C@H](CC(=O)O)NC(=O)[C@@H](NC(=O)[C@@H](Cc1ccc(Cl)cc1)NC(=O)[C@@H](NC(=O)C(C)(C)NC(=O)[C@H](CC(=O)O)NC(=O)[C@H](CO)NC(=O)[C@@H](N)Cc1c[nH]cn1)C(C)C)[C@@H](C)O)[C@@H](C)O)C(=O)N[C@@H](C)C(=O)N[C@H](C(=O)N[C@@H](CCCCN)C(=O)N[C@@H](CCCCN)C(=O)N[C@@H](Cc1ccc(O)cc1)C(=O)N[C@@H](CC(C)C)C(=O)N[C@@H](CC(N)=O)C(=O)N[C@@H](CO)C(=O)N[C@H](C(=O)N[C@@H](CC(C)C)C(=O)N[C@@H](CC(N)=O)C(N)=O)[C@@H](C)CC)C(C)C [SEQ ID NO: 10, His-Ser-Asp-Aib-Val-4-Cl-D-Phe-Thr-Asp-Asn-Tyr-Thr-Arg-Leu-Arg-Lys-Gln-Dpg-Ala-Val-Lys-Lys-Tyr-Leu-Asn-Ser-Ile-Leu-Asn-NH2] (H-HSD[Aib]V[dPhe(4-Cl)]TDNYTRLRKQ[Dpg]AVKKYLNSILN-NH2)
PA-1 (ovary); PA1, 100 pM
  Percentage cytotoxicity: 28 ± 0.0%
PA-1 (ovary); PA1, 1 nM
  Percentage cytotoxicity: 31 ± 6.0%
PA-1 (ovary); PA1, 10 nM
  Percentage cytotoxicity: 26 ± 3.0%
PA-1 (ovary); PA1, 100 nM
  Percentage cytotoxicity: 25 ± 5.0%
PA-1 (ovary); PA1, 1 μM
  Percentage cytotoxicity: 23 ± 6.5%
KB (oral); 100 pM
  Percentage cytotoxicity: 12 ± 8.0%
KB (oral); 1 nM
  Percentage cytotoxicity: 32 ± 7.8%
KB (oral); 10 nM
  Percentage cytotoxicity: 26 ± 7.8%
KB (oral); 100 nM
  Percentage cytotoxicity: 27 ± 6.0%
KB (oral); 1 μM
  Percentage cytotoxicity: 30 ± 5.0%
L132 (lung); L132, 100 pM
  Percentage cytotoxicity: 15 ± 7.0%
L132 (lung); L132, 1 nM
  Percentage cytotoxicity: 28 ± 6.0%
L132 (lung); L132, 10 nM
  Percentage cytotoxicity: 31 ± 6.0%
L132 (lung); L132, 100 nM
  Percentage cytotoxicity: 29 ± 5.5%
L132 (lung); L132, 1 μM
  Percentage cytotoxicity: 17 ± 5.0%
HuTu80 (duodenum); HuTu80, 100 pM
  Percentage cytotoxicity: 15 ± 7.8%
HuTu80 (duodenum); HuTu80, 1 nM
  Percentage cytotoxicity: 31 ± 7.0%
HuTu80 (duodenum); HuTu80, 10 nM
  Percentage cytotoxicity: 28 ± 5.0%
HuTu80 (duodenum); HuTu80, 100 nM
  Percentage cytotoxicity: 28 ± 8.0%
HuTu80 (duodenum); HuTu80, 1 μM
  Percentage cytotoxicity: 16 ± 4.5%
SW620 (colon); SW620, 100 pM
  Percentage cytotoxicity: 17 ± 4.0%
SW620 (colon); SW620, 1 nM
  Percentage cytotoxicity: 30 ± 6.5%
SW620 (colon); SW620, 10 nM
  Percentage cytotoxicity: 29 ± 5.0%
SW620 (colon); SW620, 100 nM
  Percentage cytotoxicity: 24 ± 7.3%
SW620 (colon); SW620, 1 μM
  Percentage cytotoxicity: 16 ± 5.5%
U87MG (glioblastoma); 100 pM
  Percentage cytotoxicity: 12 ± 5.0%
U87MG (glioblastoma); 1 nM
  Percentage cytotoxicity: 16 ± 7.8%
U87MG (glioblastoma); 10 nM
  Percentage cytotoxicity: 30.1 ± 4.0%
U87MG (glioblastoma); 100 nM
  Percentage cytotoxicity: 29 ± 7.0%
U87MG (glioblastoma); 1 μM
  Percentage cytotoxicity: 29 ± 4.0%
